The record followed here is patent US20230190616A1, “COMPOUNDS USEFUL FOR THE TREATMENT AND/OR CARE OF THE SKIN, HAIR, NAILS AND/OR MUCOUS MEMBRANES” (LUBRIZOL ADVANCED MATERIALS, INC., priority 2018, published 2023).

Assay [1] concerns Musclebind like protein 1 (MBNL1) in human skeletal muscle cells (hSkMc). Nature of the assay: Quantification of Musclebind like protein 1 in human skeletal muscle cells by TR-FRET. It counts as cell-based. To be noted: 0.5 mg/ml, hSkMc; for % MBNL1 vs basal level: 48 hours, normalized to total protein. How it is done:
In vitro quantification of Musclebind like protein 1 in human skeletal muscle cells by Time resolved fluorescence resonance energy transfer.
MBNL1 induction by the peptides of the invention is evaluated by a Time resolved fluorescence resonance energy transfer (TR-FRET) assay. The aim of this study is to investigate the capacity of peptide candidates to increase MBNL-1 in human skeletal muscle cells (hSkMc).
hSkMc (Innoprot) are seeded in 12-well plates at a density of 1.5×10^4 cells/well in Skeletal Muscle Cell Growth Medium (Promocell). After 72 hours incubation, medium is removed and replaced with Skeletal Muscle Cell Differentiation Medium (Promocell). 48 hours after beginning cell differentiation, fresh differentiation medium with 0.5 mg/ml of test items is added. Treatment is continued for 48 hours and non-treated cells are used as basal control. After 48 hours of treatment, cell medium is removed and cell lysis buffer is added to wells. Immediately, plates are kept at -80° C. in order to improve protein extraction during the defrosting process. After 72 hours, cells are lysed by shaking the plates in an orbital rotor at room temperature for 45 minutes. Next, cell lysates are collected and assayed to quantify the level of MBNL-1 protein and total protein concentration.
MBNL-1 protein levels measurement is performed with Human MBNL1 Assay Kit (Cisbio) according to the manufacturer’s protocol. Briefly, the kit is used to perform a TR-FRET for MBNL1 quantification. The protein is detected with the antibodies provided in the kit and quantified by a fluorescence measurement. The quantification is carried out by using a microplate reader (ClarioStar™™™, BMG) set to 665 nm and 620 nm.
Total protein concentration of cell lysate is determined by using Pierce BCA Protein Assay Kit (Thermo Scientific) according to manufacturer’s protocol. In brief, after adding Working Reagent to the samples and the standards, the samples are incubated. Afterwards, color change is measured with an absorbance microplate reader (Clariostar™, BMG) at 562 nm. The total protein amount is used to normalize the level of MBNL1 protein concentration obtained by the TR-FRET test in the samples.
In general terms: TR-FRET usually uses a lanthanide donor and a delayed reading to cut background.

Assay [2] has as its system collagen type I in primary human dermal fibroblasts (HDFn). Nature of the assay: Type I collagen synthesis on human dermal fibroblasts by ELISA. Type of assay: cell-based. The note with it: 0.5 µg/ml, HDFn; for % Collagen induction: 48 hours, versus non-treated cells, mean of 5 assays. From the text:
In vitro study of type I collagen synthesis on human dermal fibroblasts by Enzyme-Linked Immunosorbent Assay.
Collagen type I is the principal collagen of skin. This molecule, which is mainly produced by fibroblasts, is responsible for the strength and resiliency of this tissue. For this reason, in vitro quantification of collagen induction by cosmetic products on human dermal fibroblasts provides information about their potential anti-aging effects on the skin. Collagen induction by the peptides of the invention is evaluated with an Enzyme-Linked Immunosorbent Assay (ELISA). The aim of this study is to investigate the ability of a product to induce collagen type I synthesis in primary human dermal fibroblasts isolated from neonatal skin (HDFn).
HDFn (Cascade) are seeded at a density of 5×10^4 in 48-well plates. After 24-hour incubation, fresh medium with scalar dilutions of the test items at 0.5 µg/ml are added. Non-treated cells are used as basal control. The cells are treated for 48 hours. Then, the medium of the wells is collected and transferred into a 96-well plate. A standard calibration curve prepared with calf skin type I collagen (Sigma) is transferred into the plate as well. The plate is left overnight in order to coat type I collagen into its surface. After that, collagen I is detected with an anti-collagen type I antibody (Sigma). The primary antibody is then recognized by a secondary antibody IgG-HRP (molecular probes). 3,3,5,5-tetramethylbenzidine liquid substrate (TMB, Sigma) is added to measure the amount of secondary antibody attached. The color produced by this reaction is measured in a microtiter plate reader (Clariostar™, BMG) and type I collagen concentration is determined using a linear regression of the standard curve.

For “Ac-L-Arg-L-Arg-D-Gln-L-Met-L-Glu-L-Glu-NH2 [PEP-22]”, in assay [1], the “% MBNL1 vs basal level” value stood at 141.4%; the “MBNL1 levels compared to the basal control and to Argireline (in words)” value was “increase MBNL1 levels”. Besides, the “% Collagen induction” value in assay [2] is recorded as 106.0%.

With “Ac-L-Arg-L-Arg-L-Gln-D-Met-L-Glu-L-Glu-NH2 [PEP-23]”, in assay [1], the “% MBNL1 vs basal level” value amounted to 142.3%; the “MBNL1 levels compared to the basal control and to Argireline (in words)” value was “increase MBNL1 levels”. In assay [2], the “% Collagen induction” value amounted to 114.6% and the “Efficacy in increasing collagen type I compared with Argireline (in words)” value is reported as “even higher”.
